Read-outs that look alike come from different tables or passages of the source.
What was measured:
[1] = Gastric ulceration (gastric irritation test); type: in vivo, Wistar male rats; details: rat, in vivo, po
Method: (§1) Five Wistar male rats weighing about 150 g. were used as one group. The rats were fasted for 24 hours before the test.
(§2) Six hours after orally administration of the compounds to be tested, there was observed an existence of gastric ulcer by the method of Okabe et al (Ohyoyakuri, 16, 241 to 247 (1978)). The UD50 values were calculated from the ulcer incidence of gastric ulcer by the method of Litchfield-Wilcoxon.

[2] = system: carrageenan-induced edema; assay: Inhibitory effect on carrageenan-induced edema; type: in vivo, Wistar male rats; details: Rattus norvegicus
Method: Five Wistar male rats weighing about 150 g. were used as one group. A 1% dispersion of carrageenan was injected intracutaneously into the foot pad of the right hind foot in a dose of 0.1 ml./rat. The compounds to be tested were orally administered to the rats fasted for 15 hours one hour before the carrageenan injection, or intravenously administered 2 hours […] the carrageenan injection. The volume of the foot subjected to the injection was measured by a mercury plethysmography 3 hours after the carrageenan injection on the test by oral route or 2 hours after the carrageenan injection on the test by intravenous route, and the carrageenan-induced edema was estimated from the obtained measurments.

[3] = Hydrolysis of FP derivatives in rat plasma; type: in vitro ADME; details: Table 4; rat plasma (Compound No. 10), 37° C., one hour, amount corresponding to 50 μg. of FP per 1 ml.; read-out: Hydrolyzing rate
[4] = in vivo; details: mouse, po
Method: (§3) Eight male SLC-ddY mice 5 week old weighing 25 to 30 g. were used as one group. The compound to be tested was orally administered using a stomach tube. The animals were kept under observation for 2 weeks. The numbers of dead animals were counted and the LD50 values were calculated by the method of Litchfield Wilcoxon.

[5] = in vitro; details: human, plasma
Method: Each reaction mixture was incubated at 37° C. for one hour
The free FP formed by esterase in the plasma was extracted with benzene. After treating the extract with N,O-bis(trimethylsilylacetamide) for trimethylsilylation, the obtained material was determined by gas-liquid chromatography.

[6] = system: gastric ulcer; assay: Gastric ulceration (gastric irritation test); type: in vivo, Wistar male rats; details: for UD50, gastric ulcer: Table 3, Wistar male rats, orally, six hours after administration, Litchfield-Wilcoxon; for UD50 (50% ulcerative dose): rat, in vivo, po
Method: as §1, §2

[7] = system: mice; assay: Acute toxicity; details: 20160 min; for LD50: Table 5, male SLC-ddY mice, orally, 2 weeks observation, Litchfield Wilcoxon
Method: as §3

[8] = Table 3, Wistar male rats, orally, six hours after administration, Litchfield-Wilcoxon, read-out: UD50, gastric ulcer
[9] = iv, 2 h, read-out: ED50, carrageenan-induced edema
[10] = iv, read-out: ED50 (50% effective dose), carrageenan-induced edema inhibition
[11] = po, read-out: ED50 (50% effective dose), carrageenan-induced edema inhibition
[12] = po, read-out: ED50, carrageenan-induced edema
[13] = iv, Table 1, rats, i.v., read-out: ED50 (50% effective dose), carrageenan-induced edema inhibition
[14] = iv, Table 2, Wistar male rats, i.v. 2 hours after carrageenan, read-out: ED50, carrageenan-induced edema
[15] = po, Table 1, rats, p.o., read-out: ED50 (50% effective dose), carrageenan-induced edema inhibition
[16] = po, Table 2, Wistar male rats, p.o. one hour before carrageenan, measured 3 hours after carrageenan, read-out: ED50, carrageenan-induced edema

## CC(C(=O)OC1C(=O)OCC1(C)C)c1ccc(-c2ccccc2)c(F)c1 (centres unmarked) [Compound 10, 3,3-Dimethyl-2-[2-(2-fluoro-4-biphenylyl)propionyloxy]-γ-butyrolactone]
[1]; [8]
  TD50 at 6 h: 2.5 mg/kg
[2]; [9]
  ED50: 0.05 mg/kg
[2]; [10]
  ED50: 0.05 mg/kg
[2]; [11]
  ED50: 0.5 mg/kg
[2]; [12]
  ED50: 0.5 mg/kg
[3]
  metabolised at 1 h: 72.3%
[4]
  LD50 at 336 h: 670 mg/kg

## CC(C)=CC(=O)OC(C)OC(=O)C(C)c1ccc(-c2ccccc2)c(F)c1 (centres unmarked) [Compound 8, [1-(3,3-dimethylacryloyloxy)ethyl]2-(2-fluoro-4-biphenylyl)propionate]
[1]
  TD50 at 6 h: 7 mg/kg
[2]; [13]
  ED50: 0.3 mg/kg
[2]; [14]
  ED50: 0.3 mg/kg
[2]; [15]
  ED50: 2.5 mg/kg
[2]; [16]
  ED50: 2.5 mg/kg
[4]
  LD50 at 336 h: 1000 mg/kg

## C/C=C/C(=O)OC(C)OC(=O)C(C)c1ccc(-c2ccccc2)c(F)c1 (centres unmarked) [Compound 7, 1-(crotonoyloxy)ethyl 2-(2-fluoro-4-biphenylyl)propionate]
[1]; [8]
  TD50 at 6 h: 4 mg/kg
[2]; [9]
  ED50: 0.08 mg/kg
[2]; [10]
  ED50: 0.08 mg/kg
[2]; [11]
  ED50: 0.9 mg/kg
[2]; [12]
  ED50: 0.9 mg/kg
[4]
  LD50 at 336 h: 800 mg/kg

## CC=CC=CC(=O)OC(C)OC(=O)C(C)c1ccc(-c2ccccc2)c(F)c1 (centres unmarked) [Compound 9, [1-(2,4-Hexadienoyloxy)ethyl]2-(2-fluoro-4-biphenylyl) propionate]
[5]
  metabolised at 1 h: 20.4%
[1]
  TD50 at 6 h: 7 mg/kg
[2]; [13]
  ED50: 0.3 mg/kg
[2]; [14]
  ED50: 0.3 mg/kg
[2]; [15]
  ED50: 2 mg/kg
[2]; [16]
  ED50: 2 mg/kg
[4]
  LD50 at 336 h: 1000 mg/kg

## CC(OC(=O)C(C)C)OC(=O)C(C)c1ccc(-c2ccccc2)c(F)c1 (centres unmarked) [Compound 3, 1-(isobutyryloxy)ethyl 2-(2-fluoro-4-biphenylyl)propionate]
[1]; [8]
  TD50 at 6 h: 5 mg/kg
[2]; [9]
  ED50: 0.1 mg/kg
[2]; [10]
  ED50: 0.1 mg/kg
[2]; [11]
  ED50: 1.5 mg/kg
[2]; [12]
  ED50: 1.5 mg/kg
[4]
  LD50 at 336 h: 880 mg/kg

## CC(=O)OC(C)OC(=O)C(C)c1ccc(-c2ccccc2)c(F)c1 (centres unmarked) [Compound 1, 1-(Acetoxy)ethyl 2-(2-fluoro-4-biphenylyl)propionate]
[1]; [8]
  TD50 at 6 h: 2.5 mg/kg
[2]; [9]
  ED50: 0.05 mg/kg
[2]; [10]
  ED50: 0.05 mg/kg
[2]; [11]
  ED50: 0.5 mg/kg
[2]; [12]
  ED50: 0.5 mg/kg
[4]
  LD50 at 336 h: 650 mg/kg

## CCC(OC(C)=O)OC(=O)C(C)c1ccc(-c2ccccc2)c(F)c1 (centres unmarked) [Compound 6, 1-(Acetoxy)propyl 2-(2-fluoro-4-biphenylyl)propionate]
[1]; [8]
  TD50 at 6 h: 5 mg/kg
[2]; [9]
  ED50: 0.1 mg/kg
[2]; [10]
  ED50: 0.1 mg/kg
[2]; [11]
  ED50: 1.5 mg/kg
[2]; [12]
  ED50: 1.5 mg/kg
[4]
  LD50 at 336 h: 900 mg/kg

## CCC(=O)OC(C)OC(=O)C(C)c1ccc(-c2ccccc2)c(F)c1 (centres unmarked) [Compound 2, 1-(Propionyloxy)ethyl 2-(2-fluoro-4-biphenylyl)propionate]
[1]; [8]
  TD50 at 6 h: 3 mg/kg
[2]; [9]
  ED50: 0.06 mg/kg
[2]; [10]
  ED50: 0.06 mg/kg
[2]; [11]
  ED50: 0.7 mg/kg
[2]; [12]
  ED50: 0.7 mg/kg
[4]
  LD50 at 336 h: 800 mg/kg

## COc1ccc2c(c1)c(CC(=O)O)c(C)n2C(=O)c1ccc(Cl)cc1 [indomethacin]
[6]; 360 min
  UD50, gastric ulcer: 5.0 mg/kg
[7]; Table 1, mice, p.o.
  LD50 (50% lethal dose): 14.0 mg/kg
[7]
  LD50: 14.0 mg/kg

## COc1ccc2c(c1)c(CC(=O)OCC(=O)O)c(C)n2C(=O)c1ccc(Cl)cc1 [acemethacin]
[6]; 360 min
  UD50 (50% ulcerative dose): 17.5 mg/kg
[7]; Table 1, mice, p.o.
  LD50 (50% lethal dose): 18.0 mg/kg
[7]
  LD50: 18.0 mg/kg

## CCCCCCCCCCCCCCCC(=O)OC(C)OC(=O)C(C)c1ccc(-c2ccccc2)c(F)c1 (centres unmarked) [Compound 5, 1-(palmitoyloxy)ethyl 2-(2-fluoro-4-biphenylyl)propionate]
[1]
  TD50 at 6 h: > 10 mg/kg
[6]; 6 h
  UD50 (50% ulcerative dose): > 10.0 mg/kg
[7]; mouse, in vivo, po
  LD50 (50% lethal dose): > 1000 mg/kg
[2]; [13]
  ED50: > 5 mg/kg
[2]; [14]
  ED50: > 5 mg/kg
[2]; [15]
  ED50: > 5 mg/kg
[2]; [16]
  ED50: > 5 mg/kg
[4]
  LD50 at 336 h: > 1000 mg/kg

## CC(OC(=O)C(C)c1ccc(-c2ccccc2)c(F)c1)OC(=O)C(C)(C)C (centres unmarked) [Compound 4, 1-(pivaloyloxy)ethyl 2-(2-fluoro-4-biphenylyl)propionate]
[1]
  TD50 at 6 h: 10 mg/kg
[7]; mouse, in vivo, po
  LD50 (50% lethal dose): > 1000 mg/kg
[2]; [13]
  ED50: 0.6 mg/kg
[2]; [14]
  ED50: 0.6 mg/kg
[2]; [15]
  ED50: 2.5 mg/kg
[2]; [16]
  ED50: 2.5 mg/kg
[4]
  LD50 at 336 h: > 1000 mg/kg

## CC(C(=O)O)c1ccc(-c2ccccc2)c(F)c1 (centres unmarked) [FP, 2-(2-fluoro-4-biphenylyl)-propionic acid]
[6]; 360 min
  UD50, gastric ulcer: 1.0 mg/kg
[7]; Table 1, mice, p.o.
  LD50 (50% lethal dose): 440 mg/kg
[7]
  LD50: 440 mg/kg

From patent US4766148A, “Biphenylylpropionic acid derivative and pharmaceutical composition containing the same” (priority 1983, dated 1988)
